Experimental data reported in ChEMBL document CHEMBL1909046, “DrugMatrix in vitro pharmacology data”.

Tests used:
[1] = DRUGMATRIX: Glutamate, AMPA radioligand binding (ligand: [3H] AMPA); format: cell membranes, Rattus norvegicus, Wistar, Cerebral cortex, Membrane; details: Not Active = under 50% inhibition at 10 µM
D(4) dopamine receptor = molecular target: T1, D(4) dopamine receptor (Homo sapiens, UniProt P21917); experiment: DRUGMATRIX: Dopamine D4.2 radioligand binding (ligand: [3H] Spiperone); format: cell membranes, CHO-K1, Membrane; details: cho-k1; Not Active = under 50% inhibition at 10 µM
T1 sequence (P21917 whole entry): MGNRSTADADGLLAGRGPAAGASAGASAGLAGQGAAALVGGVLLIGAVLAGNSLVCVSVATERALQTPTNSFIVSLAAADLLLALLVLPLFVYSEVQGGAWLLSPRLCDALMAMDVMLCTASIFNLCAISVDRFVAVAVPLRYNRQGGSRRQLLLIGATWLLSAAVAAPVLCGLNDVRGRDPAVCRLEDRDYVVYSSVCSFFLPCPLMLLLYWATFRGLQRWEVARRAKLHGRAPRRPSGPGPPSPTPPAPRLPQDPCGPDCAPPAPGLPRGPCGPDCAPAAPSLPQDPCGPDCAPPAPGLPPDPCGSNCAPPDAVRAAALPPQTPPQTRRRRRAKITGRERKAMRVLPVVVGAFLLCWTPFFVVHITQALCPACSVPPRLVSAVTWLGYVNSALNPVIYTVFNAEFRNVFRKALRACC

[2] = DRUGMATRIX: Imidazoline I2, Central radioligand binding (ligand: [3H] Idazoxan); format: cell membranes, Rattus norvegicus, Wistar, Cerebral cortex, Membrane; details: Not Active = under 50% inhibition at 10 µM
[3] = DRUGMATRIX: ATPase, Na+/K+ enzyme inhibition (substrate: ATP); format: tissue-based, Sus scrofa, Heart; details: Not Active = under 50% inhibition at 10 µM
[4] = molecular target: T2, Angiotensin-converting enzyme (Oryctolagus cuniculus, UniProt P12822); experiment: biochemical; format: tissue-based, Lung;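 note: enzymatic inhibition of angiotensin-converting enzyme measured with FAPGG as the substrate; in other assays of this panel Not Active means under 50% inhibition at 10 µM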
T2 sequence (P12822 whole entry): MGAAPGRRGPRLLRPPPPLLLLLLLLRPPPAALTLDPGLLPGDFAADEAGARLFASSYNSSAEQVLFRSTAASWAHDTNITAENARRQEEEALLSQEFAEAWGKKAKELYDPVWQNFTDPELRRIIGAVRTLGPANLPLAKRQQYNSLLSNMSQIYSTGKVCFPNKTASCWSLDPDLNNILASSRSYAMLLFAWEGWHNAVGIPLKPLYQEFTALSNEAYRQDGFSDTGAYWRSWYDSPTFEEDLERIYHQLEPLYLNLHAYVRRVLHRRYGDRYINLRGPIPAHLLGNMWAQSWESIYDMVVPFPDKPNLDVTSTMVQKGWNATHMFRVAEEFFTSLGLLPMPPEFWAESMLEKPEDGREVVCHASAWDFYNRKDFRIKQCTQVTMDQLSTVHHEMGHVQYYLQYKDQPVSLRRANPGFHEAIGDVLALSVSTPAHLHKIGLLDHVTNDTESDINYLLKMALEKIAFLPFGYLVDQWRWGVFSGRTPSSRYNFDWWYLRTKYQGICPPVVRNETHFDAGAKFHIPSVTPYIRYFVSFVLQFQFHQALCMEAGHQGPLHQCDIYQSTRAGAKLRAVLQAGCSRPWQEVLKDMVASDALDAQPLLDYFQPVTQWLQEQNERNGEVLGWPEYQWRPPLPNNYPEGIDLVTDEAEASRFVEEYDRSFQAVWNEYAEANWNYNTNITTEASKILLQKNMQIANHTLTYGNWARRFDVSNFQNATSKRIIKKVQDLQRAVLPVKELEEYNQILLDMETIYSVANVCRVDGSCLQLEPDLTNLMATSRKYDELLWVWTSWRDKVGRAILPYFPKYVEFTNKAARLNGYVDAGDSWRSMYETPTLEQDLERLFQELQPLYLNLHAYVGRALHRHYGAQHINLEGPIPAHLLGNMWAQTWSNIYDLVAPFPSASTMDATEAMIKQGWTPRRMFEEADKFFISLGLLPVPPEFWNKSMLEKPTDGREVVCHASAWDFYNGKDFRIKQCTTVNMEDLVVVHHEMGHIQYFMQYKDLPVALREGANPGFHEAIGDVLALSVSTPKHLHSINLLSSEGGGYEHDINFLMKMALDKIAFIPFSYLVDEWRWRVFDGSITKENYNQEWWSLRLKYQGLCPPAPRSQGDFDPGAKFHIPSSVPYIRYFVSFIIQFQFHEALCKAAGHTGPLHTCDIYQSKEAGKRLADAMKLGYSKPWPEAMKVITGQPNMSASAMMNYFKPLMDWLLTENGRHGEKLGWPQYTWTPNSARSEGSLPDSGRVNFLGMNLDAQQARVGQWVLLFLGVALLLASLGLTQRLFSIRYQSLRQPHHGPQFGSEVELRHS

Insulin receptor = Insulin receptor (Rattus norvegicus, UniProt P15127); format: cell membranes, Wistar, Liver, Membrane; note: in other assays of this panel Not Active means under 50% inhibition at 10 µM
Sequence of Insulin receptor (P15127 27-759 limits assumed): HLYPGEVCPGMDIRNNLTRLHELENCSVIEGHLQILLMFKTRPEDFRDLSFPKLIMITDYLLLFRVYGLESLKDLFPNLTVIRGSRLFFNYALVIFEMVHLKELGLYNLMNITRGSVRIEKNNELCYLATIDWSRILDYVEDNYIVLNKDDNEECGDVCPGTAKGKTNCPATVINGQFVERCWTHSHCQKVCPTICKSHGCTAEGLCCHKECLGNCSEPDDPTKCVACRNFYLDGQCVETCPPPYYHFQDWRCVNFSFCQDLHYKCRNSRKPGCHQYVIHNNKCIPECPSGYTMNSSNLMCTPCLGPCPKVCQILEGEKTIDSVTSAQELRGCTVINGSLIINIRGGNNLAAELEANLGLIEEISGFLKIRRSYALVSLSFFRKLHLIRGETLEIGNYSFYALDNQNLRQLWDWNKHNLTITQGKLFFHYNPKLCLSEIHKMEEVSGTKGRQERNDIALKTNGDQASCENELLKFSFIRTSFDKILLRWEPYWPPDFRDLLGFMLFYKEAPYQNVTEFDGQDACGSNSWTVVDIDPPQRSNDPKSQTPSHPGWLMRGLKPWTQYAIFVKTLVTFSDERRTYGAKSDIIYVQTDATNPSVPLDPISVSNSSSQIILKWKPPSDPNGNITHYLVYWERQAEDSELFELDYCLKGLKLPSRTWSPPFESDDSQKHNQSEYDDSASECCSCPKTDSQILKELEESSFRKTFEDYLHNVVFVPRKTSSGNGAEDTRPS
Sequence of Insulin receptor (P15127 764-1383 limits assumed): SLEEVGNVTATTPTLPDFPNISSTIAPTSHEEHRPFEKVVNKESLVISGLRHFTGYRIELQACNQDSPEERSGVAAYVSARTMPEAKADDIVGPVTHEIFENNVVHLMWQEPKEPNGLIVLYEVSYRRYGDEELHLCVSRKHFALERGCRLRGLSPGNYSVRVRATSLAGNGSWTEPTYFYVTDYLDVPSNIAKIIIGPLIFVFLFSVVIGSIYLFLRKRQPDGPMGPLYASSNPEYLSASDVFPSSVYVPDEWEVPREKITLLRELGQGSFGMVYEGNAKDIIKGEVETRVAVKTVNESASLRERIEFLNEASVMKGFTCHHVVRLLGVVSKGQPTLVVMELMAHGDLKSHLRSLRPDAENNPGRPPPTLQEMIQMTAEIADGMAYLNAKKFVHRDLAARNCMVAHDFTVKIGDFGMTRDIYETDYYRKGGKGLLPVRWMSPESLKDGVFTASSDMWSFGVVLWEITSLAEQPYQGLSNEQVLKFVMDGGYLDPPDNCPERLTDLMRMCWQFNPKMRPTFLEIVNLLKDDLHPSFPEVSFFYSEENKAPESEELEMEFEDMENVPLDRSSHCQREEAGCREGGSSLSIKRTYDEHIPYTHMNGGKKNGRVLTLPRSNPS

Cytochrome P450 2A6 = molecular target: T3, Cytochrome P450 2A6 (Homo sapiens, UniProt P11509); details: bti-tn-5b1-4; note: in other assays of this panel Not Active means under 50% inhibition at 10 µM
T3 sequence (P11509 whole entry): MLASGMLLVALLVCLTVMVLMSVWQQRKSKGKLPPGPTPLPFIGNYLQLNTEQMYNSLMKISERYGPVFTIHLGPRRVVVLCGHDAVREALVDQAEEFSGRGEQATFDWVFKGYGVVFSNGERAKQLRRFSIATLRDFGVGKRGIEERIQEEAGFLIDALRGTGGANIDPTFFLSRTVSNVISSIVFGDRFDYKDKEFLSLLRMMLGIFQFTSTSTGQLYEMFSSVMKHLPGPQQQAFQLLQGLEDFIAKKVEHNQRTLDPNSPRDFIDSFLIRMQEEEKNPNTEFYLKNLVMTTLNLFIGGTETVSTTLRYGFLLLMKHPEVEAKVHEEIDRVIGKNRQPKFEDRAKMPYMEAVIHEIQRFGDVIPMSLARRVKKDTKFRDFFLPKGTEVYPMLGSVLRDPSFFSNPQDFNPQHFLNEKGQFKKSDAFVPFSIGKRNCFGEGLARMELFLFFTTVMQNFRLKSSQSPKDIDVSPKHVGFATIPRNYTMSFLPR

[5] = molecular target: Epidermal growth factor receptor (Homo sapiens, UniProt P00533); experiment: DRUGMATRIX: Protein Tyrosine Kinase, EGF Receptor enzyme inhibition (substrate: Poly(Glu:Tyr)); format: cell-based, Insect cells; details: insect cells; Not Active = under 50% inhibition at 10 µM
[6] = molecular target: C-C chemokine receptor type 5 (Homo sapiens, UniProt P51681); format: cell membranes, Membrane; details: hek293; note: in other assays of this panel Not Active means under 50% inhibition at 10 µM
Sequence of C-C chemokine receptor type 5 (P51681 whole entry): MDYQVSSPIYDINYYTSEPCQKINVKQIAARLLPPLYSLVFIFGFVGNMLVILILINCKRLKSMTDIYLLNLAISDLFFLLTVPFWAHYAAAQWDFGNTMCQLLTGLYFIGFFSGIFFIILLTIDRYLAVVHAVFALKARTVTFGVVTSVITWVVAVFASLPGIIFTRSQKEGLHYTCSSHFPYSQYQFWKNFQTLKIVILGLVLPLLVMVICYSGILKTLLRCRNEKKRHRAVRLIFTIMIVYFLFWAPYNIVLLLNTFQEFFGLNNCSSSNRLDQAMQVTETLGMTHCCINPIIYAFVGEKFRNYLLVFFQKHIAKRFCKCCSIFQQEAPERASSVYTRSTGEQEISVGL

[7] = molecular target: Beta-3 adrenergic receptor (Homo sapiens, UniProt P13945); experiment: DRUGMATRIX: Adrenergic beta3 radioligand binding (ligand: [125I] Cyanopindolol); format: cell membranes, HEK293, Membrane; details: hek293; Not Active = under 50% inhibition at 10 µM
Sequence of Beta-3 adrenergic receptor (P13945 whole entry): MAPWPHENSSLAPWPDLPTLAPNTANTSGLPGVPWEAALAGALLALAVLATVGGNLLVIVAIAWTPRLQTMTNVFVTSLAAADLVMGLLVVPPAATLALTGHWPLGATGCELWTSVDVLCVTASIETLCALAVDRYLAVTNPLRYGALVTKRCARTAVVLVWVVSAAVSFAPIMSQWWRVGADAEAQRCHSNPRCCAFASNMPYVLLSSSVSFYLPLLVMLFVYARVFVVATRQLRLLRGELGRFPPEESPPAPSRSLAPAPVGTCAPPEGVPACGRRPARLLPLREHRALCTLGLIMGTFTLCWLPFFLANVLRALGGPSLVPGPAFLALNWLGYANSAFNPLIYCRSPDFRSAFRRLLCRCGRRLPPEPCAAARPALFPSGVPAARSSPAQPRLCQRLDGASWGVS

COc1cc(C(=O)NC2CCCNC2)cc(OC)c1OC (stereo unspecified) [TROXIPIDE]
Not Active: IC50 [1] | Ki [1] | IC50 (D(4) dopamine receptor) | IC50 [2] | Ki [2] | IC50 [3] | Ki [3] | IC50 [4] | IC50 (Insulin receptor) | IC50 (Cytochrome P450 2A6) | Ki (Cytochrome P450 2A6) | IC50 [5] | IC50 [6] | IC50 [7]

CC(C)[C@H](N)C(=O)OCCOCn1cnc2c(=O)nc(N)[nH]c21 [VALACYCLOVIR]
Not Active: IC50 [1] | Ki [1] | IC50 (D(4) dopamine receptor) | IC50 [2] | Ki [2] | IC50 [3] | Ki [3] | IC50 [4] | IC50 (Insulin receptor) | IC50 (Cytochrome P450 2A6) | Ki (Cytochrome P450 2A6) | IC50 [5] | IC50 [6] | IC50 [7]

CN[C@H](CC(C)C)C(=O)N[C@H]1C(=O)N[C@@H](CC(N)=O)C(=O)N[C@H]2C(=O)N[C@H]3C(=O)N[C@H](C(=O)N[C@H](C(=O)O)c4cc(O)cc(O)c4-c4cc3ccc4O)[C@H](O)c3ccc(c(Cl)c3)Oc3cc2cc(c3O[C@@H]2O[C@H](CO)[C@@H](O)[C@H](O)[C@H]2O[C@H]2C[C@](C)(N)[C@H](O)[C@H](C)O2)Oc2ccc(cc2Cl)[C@H]1O [VANCOMYCIN]
Not Active: IC50 [1] | Ki [1] | IC50 (D(4) dopamine receptor) | IC50 [2] | Ki [2] | IC50 [3] | Ki [3] | IC50 [4] | IC50 (Insulin receptor) | IC50 (Cytochrome P450 2A6) | Ki (Cytochrome P450 2A6) | IC50 [5] | IC50 [6] | IC50 [7]

COc1ccc(C(CN(C)C)C2(O)CCCCC2)cc1 (stereo unspecified) [VENLAFAXINE]
Not Active: IC50 [1] | Ki [1] | IC50 (D(4) dopamine receptor) | IC50 [2] | Ki [2] | IC50 [3] | Ki [3] | IC50 [4] | IC50 (Insulin receptor) | IC50 (Cytochrome P450 2A6) | Ki (Cytochrome P450 2A6) | IC50 [5] | IC50 [6] | IC50 [7]

IVERMECTIN
Not Active: IC50 [1] | Ki [1] | IC50 (D(4) dopamine receptor) | Ki (D(4) dopamine receptor) | IC50 [2] | Ki [2] | IC50 [3] | Ki [3] | IC50 [4] | Ki [4] | IC50 (Insulin receptor) | Ki (Insulin receptor) | IC50 (Cytochrome P450 2A6) | Ki (Cytochrome P450 2A6) | IC50 [5] | Ki [5] | IC50 [6] | Ki [6] | IC50 [7] | Ki [7]
